Among the data in patent publication US11098054B2, “Englerin derivatives for treatment of cancer” (The United States of America,as represented by the …, priority 2017, dated 2021) are GI50 values, retold here.

What all share (format): cell-based
Experiment [1] has as its system cancer cell lines within the NCI 60 cell assay. Briefly: NCI 60 cell assay, cancer cell line panel. The settings on record: Homo sapiens, average over the nine cell lines of Table 1, read-out: Average GI-50. How it is done:
(§1) Samples containing exemplary compounds of formulas (Ia)-(Ig) were tested in the standard National Cancer Institute 60-cell line protocol. First, they were tested against all 60 cell lines in a single final concentration of 10 micromolar. Then, they were separately tested in five 10-fold dilutions. The drug exposure was two days, with an SRB endpoint.

The subject of the next experiment is OVCAR-8. Nature of the experiment: NCI 60-cell line protocol, OVCAR-8 (ovarian). The settings on record: Homo sapiens, 48 h, two days drug exposure, SRB endpoint, read-out: GI-50 value. As to the method: as §1
For a further experiment, the system named is 786-0. Nature of the experiment: NCI 60-cell line protocol, 786-0 (renal). The settings on record: Homo sapiens, 48 h, two days drug exposure, SRB endpoint, read-out: GI-50 value. As to the method:
as §1

For a further experiment, the system named is HS 578T. Nature of the experiment: NCI 60-cell line protocol, HS 578T (breast). The settings on record: Homo sapiens, 48 h, two days drug exposure, SRB endpoint, read-out: GI-50 value. As to the method: as §1
For another experiment, the system named is RXF 393. Nature of the experiment: NCI 60-cell line protocol, RXF 393 (renal). The settings on record: Homo sapiens, 48 h, two days drug exposure, SRB endpoint, read-out: GI-50 value. How it is done:
as §1

The test system of a further experiment is UO-31. Nature of the experiment: NCI 60-cell line protocol, UO-31 (renal). The settings on record: Homo sapiens, 48 h, two days drug exposure, SRB endpoint, read-out: GI-50 value. As to the method: as §1
Another experiment concerns BT-549. Briefly: NCI 60-cell line protocol, BT-549 (breast). The settings on record: Homo sapiens, 48 h, two days drug exposure, SRB endpoint, read-out: GI-50 value. How it is done: as §1
The next experiment deals with ACHN. Nature of the experiment: NCI 60-cell line protocol, ACHN (renal). The settings on record: Homo sapiens, 48 h, two days drug exposure, SRB endpoint, read-out: GI-50 value. How it is done: as §1
Another experiment has as its system A498. Briefly: NCI 60-cell line protocol, A498 (renal). The settings on record: Homo sapiens, 48 h, two days drug exposure, SRB endpoint, read-out: GI-50 value. How it is done:
as §1

The next experiment relates to SN12C. Briefly: NCI 60-cell line protocol, SN12C (renal). The settings on record: Homo sapiens, 48 h, two days drug exposure, SRB endpoint, read-out: GI-50 value. How it is done: as §1

Regarding `Cc1c(C(=O)O[C@H]2C3C(C)CC[C@H]3[C@]3(C)O[C@@]2(C2CCCCC2)C[C@H]3OC(=O)CO)ccc2ccccc12` (stereo partly shown) [(Ig)], the GI50 worked out at 2.13 µM in experiment [1]; 6.61 µM in the experiment on OVCAR-8; 6.46 µM with 786-0; 0.017 µM in the experiment with HS 578T; 0.166 µM with RXF 393; 0.407 µM with UO-31. Also, the GI50 with BT-549 is 5.25 µM; with ACHN, 0.059 µM; with A498 it was 0.017 µM; with SN12C it was 0.158 µM.
For the molecule `C/C(=C\C(=O)O[C@H]1C2C(C)CC[C@H]2[C@]2(C)O[C@@]1(C1CCCCC1)C[C@H]2OC(=O)CO)c1ccccc1` (stereo partly shown) [(Ie)], the GI50 was 1.08 µM in experiment [1]; 4.27 µM with OVCAR-8; 5.13 µM in the experiment on 786-0; 0.01 µM in the experiment with HS 578T; 0.079 µM in the experiment with RXF 393; 0.062 µM in the experiment on UO-31. Besides, the GI50 in the experiment with BT-549 turned out to be 0.12 µM; in the experiment with ACHN, 0.015 µM; in the experiment on A498 it was 0.016 µM; in the experiment on SN12C, 0.023 µM.
Take `C[C@@H]1CC[C@@H]2C1[C@H](OC(=O)/C=C/c1ccccc1)[C@]1(c3ccccc3)C[C@@H](OC(=O)CO)[C@@]2(C)O1` (stereo partly shown) [(Ic)]: the GI50 in [1] came to 2.26 µM; in the experiment with OVCAR-8 it was 6.76 µM; with 786-0, 11.7 µM; in the experiment with HS 578T, 0.112 µM; in the experiment with RXF 393, 0.251 µM; in the experiment on UO-31, 0.155 µM. Further, the GI50 in the experiment with BT-549 stood at 0.407 µM; in the experiment on ACHN, 0.178 µM; in the experiment on A498, 0.191 µM; in the experiment on SN12C it was 0.537 µM.
`C[C@@H]1CC[C@@H]2C1[C@H](OC(=O)/C=C/c1ccccc1)C1(C3CCCCC3)C[C@@H](NC(=O)CO)C2(C)O1` (stereo partly shown) [(Ia)]: the GI50 was 8.03 µM in [1]; 16.2 µM in the experiment on OVCAR-8; 14.8 µM in the experiment with 786-0; 2.82 µM in the experiment with HS 578T; 3.31 µM with RXF 393; 4.79 µM in the experiment with UO-31. For the same molecule, the GI50 with BT-549 is 13.2 µM; in the experiment with ACHN, 3.47 µM; in the experiment with A498 it was 2.19 µM; in the experiment with SN12C, 11.5 µM.
As to `CC1CC[C@@H]2C1[C@H](OC(=O)/C=C/C1CCCCC1)[C@]1(C3CCCCC3)C[C@@H](OC(=O)CO)[C@@]2(C)O1` (stereo partly shown) [(Id)], the GI50 in experiment [1] stood at 2.55 µM; in the experiment with OVCAR-8, 10.7 µM; with 786-0, 12 µM; with HS 578T it was 0.016 µM; in the experiment with RXF 393, 0.034 µM; in the experiment on UO-31 it was 0.029 µM. The GI50 with BT-549 came to 0.055 µM; in the experiment on ACHN, 0.022 µM; with A498, 0.021 µM; with SN12C, 0.032 µM.
On to `CC1CC[C@@H]2C1[C@H](OC(=O)c1ccc3ccccc3c1)[C@]1(C3CCCCC3)C[C@@H](OC(=O)CO)[C@@]2(C)O1` (stereo partly shown) [(If)], for which the GI50 in [1] turned out to be 1.25 µM; in the experiment on OVCAR-8 it was 5.62 µM; with 786-0 it was 5.37 µM; with HS 578T, 0.023 µM; in the experiment on RXF 393, 0.071 µM; in the experiment on UO-31 it was 0.04 µM. The GI50 in the experiment on BT-549 was determined as 0.071 µM; in the experiment on ACHN it was 0.019 µM; in the experiment on A498, 0.019 µM; in the experiment with SN12C it was 0.052 µM.
`C[C@@H]1CC[C@@H]2C1[C@H](OC(=O)/C=C/c1ccccc1)[C@]1(C3CCCCC3)C[C@@H](OC(=O)CO)[C@@]2(C)O1` (stereo partly shown) [(Ib)]: the GI50 in experiment [1] was 0.217 µM; in the experiment on OVCAR-8, 0.513 µM; in the experiment with 786-0, 1.18 µM; in the experiment on HS 578T it was 0.024 µM; in the experiment on RXF 393 it was 0.078 µM; in the experiment on UO-31, 0.015 µM. Moreover, the GI50 in the experiment with BT-549 came out at 0.034 µM; with ACHN it was 0.01 µM; with A498, 0.019 µM; with SN12C, 0.085 µM.
